Where two headings read alike, the source gives them in different places.
Tested on: HBV
Assay: antiviral assay in 2.2.15 cells producing HBV (virion DNA dot blot)
Type: cell-based, Hepatitis B virus
In short: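 2.2.15 cells (integrated HBV genome) were treated daily with compound at 4 concentrations for 9 days; medium harvested 24 h later and virion DNA quantified by dot-blot hybridization. EC50/EC90 are µM concentrations reducing extracellular virus by 50%/90%; cytotoxicity by neutral red uptake, CC50 as 50% cell death.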

[1] = extra-cellular virus reduced by 50%, 2.2.15 cells, 9 days treatment, read-out: Antiviral EC50

Row | Structure (SMILES) | EC50 [1] [µM] | further results
1 | C(=NNc1nc(Nc2ccccc2)nc(N2CCCCC2)n1)c1ccccc1 [Compound 3] | 4.8 | –
2 | Cc1[nH]c2ccccc2c1C=NNc1nc(Nc2ccccc2)nc(N2CCOCC2)n1 [Compound 4] | 3.4 | –
3 | FC(F)(F)c1cccc(Nc2nc(Nc3cccc(Br)c3)nc(N3CCOCC3)n2)c1 [Compound 38] | 0.592 | –
4 | CCCCN(CCCC)c1nc(NN=Cc2c[nH]c3ccccc23)nc(Nc2ccc([N+](=O)[O-])cc2)n1 [Compound 39] | 1 | –
5 | Cc1ccc(Nc2nc(NN=Cc3ccc(Cl)c(Cl)c3)nc(Nc3ccccc3)n2)c(C)c1 [Compound 40] | 30 | –
6 | O=[N+]([O-])c1ccc(Nc2nc(N/N=C/c3cccc(Cl)c3)nc(N3CCCCC3)n2)cc1 [Compound 41] | 36 | –
7 | Cc1ccc(Nc2nc(NN=Cc3ccc(Cl)cc3)nc(Nc3ccccc3)n2)c(C)c1 [Compound 42] | 6.1 | –
8 | Brc1cc2c(cc1C=NNc1nc(NCc3ccccc3)nc(Nc3ccccc3)n1)OCO2 [Compound 43] | 0.841 | –
9 | COc1ccc(C=NNc2nc(Nc3ccc([N+](=O)[O-])cc3)nc(N3CCCCC3)n2)cc1 [Compound 44] | 4.8 | –
10 | O=[N+]([O-])c1ccc(C=NNc2nc(Nc3ccccc3)nc(NC3CCCCC3)n2)cc1 [Compound 46] | > 100 | –
11 | Cc1ccc(Nc2nc(NN=Cc3cccc(Br)c3)nc(Nc3ccccc3)n2)c(C)c1 [Compound 49] | 1.2 | –
12 | Cc1[nH]c2ccccc2c1C=NNc1nc(NCc2ccccc2)nc(Nc2ccccc2)n1 [Compound 50] | 29 | –
13 | Cc1ccc(Nc2nc(NN=Cc3ccc4c(c3)OCO4)nc(Nc3ccccc3)n2)c(C)c1 [Compound 51] | 15 | –
14 | O=[N+]([O-])c1cc(C=NNc2nc(Nc3ccccc3)nc(N3CCOCC3)n2)ccc1Cl [Compound 52] | 4.5 | –
15 | Oc1ccc(Nc2nc(Nc3cccc(C(F)(F)F)c3)nc(N3CCOCC3)n2)cc1 [Compound 53] | 1.2 | –
16 | CC(C)c1ccc(C=NNc2nc(Nc3ccc([N+](=O)[O-])cc3)nc(N3CCCCCC3)n2)cc1 [Compound 56] | > 100 | –
17 | COc1ccc(C=NNc2nc(Nc3ccccc3)nc(Nc3ccc(C)cc3C)n2)c(OC)c1 [Compound 61] | 3.7 | –
18 | CC(C)c1ccc(C=NNc2nc(Nc3ccc([N+](=O)[O-])cc3)nc(N3CCCCC3)n2)cc1 [Compound 62] | > 100 | –
19 | CCN(CC)c1nc(N/N=C/c2ccc([N+](=O)[O-])cc2)nc(Nc2cc(C)ccc2C)n1 [Compound 63] | > 100 | –
20 | CNc1nc(NN=Cc2ccccc2[N+](=O)[O-])nc(Nc2ccccc2)n1 [Compound 65] | > 100 | –
21 | CC(C)(C)Nc1nc(NCc2ccccc2)nc(NN=Cc2ccc3c(c2)OCO3)n1 [Compound 67] | > 100 | –
22 | CCN(CC)c1nc(NN=Cc2ccc(F)cc2)nc(Nc2ccc([N+](=O)[O-])cc2)n1 [Compound 68] | > 100 | –
23 | CCCCN(CCCC)c1nc(NN=C(C)c2ccccc2)nc(Nc2ccc([N+](=O)[O-])cc2)n1 [Compound 74] | > 100 | –
24 | CCN(CC)c1nc(NN=Cc2cc([N+](=O)[O-])ccc2OC)nc(Nc2cc(C)ccc2C)n1 [Compound 85] | > 100 | –
25 | Cc1[nH]c2ccccc2c1C=NNc1nc(Nc2ccccc2)nc(N2CCCCC2)n1 [Compound 88] | 4.8 | –
26 | C(=Cc1ccccc1)C=NNc1nc(NCc2ccccc2)nc(Nc2ccccc2)n1 [Compound 91] | > 100 | –
27 | CC(C)(C)Nc1nc(NCc2ccccc2)nc(N/N=C/c2ccccc2F)n1 [Compound 93, 2-fluorobenzaldehyde N-[4-(benzylamino)-6-(tert-butylamino)-1,3,5-triazin-2-yl]hydrazone] | – | EC50 (Hepatitis B virus, 216 h, read-out: Antiviral EC50 (μM)): 0.503 µM; EC50 (Hepatitis B virus, 216 h, extra-cellular virus reduced by 50%, 2.2.15 cells, 9 days treatment, read-out: Antiviral EC50): 0.006 µM
28 | COc1ccccc1C=NNc1nc(Nc2ccc([N+](=O)[O-])cc2)nc(Nc2ccc(C)c(C)c2)n1 [Compound 94] | > 100 | –
